Results on six compounds are retold here after patent US7732618B2, “Benzimidazole acetic acids exhibiting CRTH2 receptor antagonism and uses thereof” (Wyeth, priority 2004, dated 2010).

Molecules are shown by their SMILES. A value given as a limit tells only on which side of the number the result lay.

Assay [1] concerns the target T1, human CRTH2 (Homo sapiens, UniProt Q9Y5Y4).
T1 sequence (Q9Y5Y4 1-395): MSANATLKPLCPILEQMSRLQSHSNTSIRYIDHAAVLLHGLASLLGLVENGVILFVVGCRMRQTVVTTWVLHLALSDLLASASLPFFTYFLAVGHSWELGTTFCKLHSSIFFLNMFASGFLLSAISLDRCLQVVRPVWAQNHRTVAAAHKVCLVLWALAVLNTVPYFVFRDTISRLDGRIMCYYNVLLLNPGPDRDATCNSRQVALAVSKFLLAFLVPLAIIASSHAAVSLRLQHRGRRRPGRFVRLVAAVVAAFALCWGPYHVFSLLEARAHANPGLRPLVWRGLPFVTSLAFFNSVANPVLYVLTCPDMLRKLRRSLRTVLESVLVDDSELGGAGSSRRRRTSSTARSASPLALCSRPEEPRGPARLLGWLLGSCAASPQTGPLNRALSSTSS
As to the kind of experiment: CRTH2 fluorescent imaging assay (intracellular calcium). Set-up: expressed in transfected cells; host or cells: HEK 293EBNA-hCRTH2 cells or HT1080-hCRTH2 cells. The note with it: for IC50: antagonism of PGD2-induced calcium increase, HEK 293EBNA-hCRTH2 or HT1080-hCRTH2 cells, read-out: RAGE hCRTH2 IC50; for approximate EC75 for PGD2: calcium response. The assay is classed as cell-based. Here is the method: The ability of the disclosed compounds to act as agonists for the hCRTH2 receptor was determined by their ability to cause increases in intracellular calcium via binding to the CRTH2 receptor.
Assays were performed on HEK 293EBNA-hCRTH2 cells that had been grown in DMEM media containing 10% FBS, […] puromycin and 1% penicillin/streptomycin/glutamine (PSG) at 37° C. in 5% CO2 or on HT1080-hCRTH2 cells (a HT1080 cell line stably expressing human CRTH2) that had been grown in alphaMEM media containing 10% FBS, 500 μg/ml hygromycin, 200 nM methotrexate and 1% PSG at 37° C. in 5% CO2.
For the assay, HEK 293EBNA-hCRTH2 cells or HT1080-hCRTH2 cells were grown to approximately 90% confluency and then dislodged from the plate with Trypsin-EDTA, resuspended in DMEM media, seeded in 384 well plates at 2×10^4 cells per well and incubated overnight at 37° C. The cells were loaded with a calcium sensing dye by removing the growth media and replacing it with 30 μL of dye loading Ringer's buffer (136 mM […], 5.4 mM D-Glucose, 20 mM Hepes pH 7.4, 2.1 mM MgCl2, 0.8 mM CaCl2, 0.2% BSA with 1× Calcium3Dye (Molecular Devices) and 2.5 mM Probenecid (Sigma)) per well. The cells were incubated at 37° C. for 1 hour to allow the dye to enter the cells. Compounds were serially diluted in DMSO and then diluted to 4× their final concentration with Ringer's buffer. The compounds were added to a 384 well plate in quadruplicate. In addition to test compounds, several wells contained Ringer's buffer with DMSO. These wells serve as control wells. 10 μL was transferred from compound/control plate to the plate containing cells loaded with dye by a fluorescent imaging plate reader (Molecular Devices). The fluorescence was measured every 4 seconds for 4 minutes. These measurements indicated the level of intracellular calcium. Increases in fluorescence relative to wells containing buffer only indicated an agonist effect of the compound. Measurement at various compound concentrations allowed one to determine the EC50 for these compounds. Following the 4 minute incubation with compound, 20 μL of Ringer's buffer with either 10 nM or 500 nM PGD2 (approximate EC75 for PGD2 in HEK 293EBNA-hCRTH2 cells and HT1080-hCRTH2 cells, respectively) was added to the wells. Inhibition by the compounds of the calcium response due to antagonism of PGD2 action on CRTH2 is reflected by a decrease in fluorescent signal relative to wells containing no compound. The fluorescence was measured every 2 seconds for 10 seconds before addition of PGD2 and every 2 seconds for 110 seconds following addition. Measurement at various compound concentrations allowed one to determine the IC50 for the compounds. EC50 and IC50 values were determined from the experimental results by nonlinear regression using the Prism 4.0 software.
In general terms: Calcium flux is commonly read through the fluorescence of an indicator in the cells.

The target in assay [2] is T1, human CRTH2. The assay is described as follows: CRTH-2 binding assay (scintillation proximity assay, inhibition of 3H-PGD2 binding). Set-up: expressed in transfected cells; host or cells: 293EBNA-hCRTH2 cells (membrane preparation). As to conditions: membranes from 293EBNA-hCRTH2 cells, 3H-PGD2 3.6 nM; Ki calculated from IC50.

In general, IC50 refers to the point on the concentration scale where inhibition reaches its midpoint. In general, Ki refers to a dissociation constant, usually derived from enzyme kinetics or from competition with a known ligand. Consider `CCCc1nc2cc(N(C3CCCCC3)S(=O)(=O)c3ccc(F)cc3)ccc2n1CC(=O)O` [Example 46, {5-[(Cyclohexyl)-(4-fluoro-benzenesulfonyl)-amino]-2-propyl-benzoimidazol-1-yl}-acetic acid], for which the IC50 in assay [1] is 375 nM. For the same compound, the Ki in assay [2] is under 1000 nM.
As to `CCCc1nc2cc(N(Cc3ccccc3)C(=O)c3cccs3)ccc2n1CC(=O)O` [Example 70, {5-[Benzyl-(thiophene-2-carbonyl)-amino]-2-propyl-benzoimidazol-1-yl}-acetic acid], the concentration for half-maximal inhibition (IC50) in assay [1] came to 7 nM. Also, in assay [2], the Ki was under 100 nM.
The matching figures for `CCCc1nc2cc(N(CCOc3ccc(Cl)cc3)S(=O)(=O)c3ccc(F)cc3)ccc2n1CC(=O)O` [Example 47, {5-[[2-(4-Chloro-phenoxy)-ethyl]-(4-fluoro-benzenesulfonyl)-amino]-2-propyl-benzoimidazol-1-yl}-acetic acid]: 22 nM and under 100 nM.
For `CCCc1nc2cc(N(Cc3ccc(Cl)cc3)S(=O)(=O)c3ccc(F)cc3)ccc2n1CC(=O)O` [Example 43, {5-[(4-Chloro-benzyl)-(4-fluoro-benzenesulfonyl)-amino]-2-propyl-benzoimidazol-1-yl}-acetic acid], in that order: 51 nM and under 100 nM.
As to `CCCc1nc2cc(N(CCCOc3ccccc3)S(=O)(=O)c3ccc(F)cc3)ccc2n1CC(=O)O` [Example 49, {5-[(4-Fluoro-benzenesulfonyl)-(3-phenoxy-propyl)-amino]-2-propyl-benzoimidazol-1-yl}-acetic acid], the IC50 in assay [1] was 47 nM. Further, in assay [2], the inhibition constant (Ki) was under 100 nM.
On to `CCCCC[C@H](O)/C=C/[C@H]1C(=O)C[C@H](O)[C@@H]1C/C=C\CCCC(=O)O` [PGD2, prostaglandin D2, reference compound], for which the entries for the “approximate EC75 for PGD2” value in assay [1] (HEK 293EBNA-hCRTH2 cells) and in assay [1] (HT1080-hCRTH2 cells) were about 10 nM and about 500 nM, respectively.
